Measurements taken from patent publication EP2351737A1, “3-Amino-1-arylpropyl indoles and aza-substituted indoles” (F. Hoffmann-La Roche AG, priority 2005, dated 2007).

Columns and labels:
[1] = biological target: T1, Human Serotonin Transporter (hSERT) (Homo sapiens, UniProt P31645); test: Human Serotonin Transporter (hSERT) Scintillation Proximity Assay (SPA), competition with [3H]-Citalopram; type: binding; details: membranes of HEK-293 cells expressing recombinant hSERT, Ki by Cheng-Prusoff; for Ki: read-out: pKi SERT (converted)
T1 construct: expressed in transfected cells; membranes prepared from them
T1 sequence (P31645 whole entry): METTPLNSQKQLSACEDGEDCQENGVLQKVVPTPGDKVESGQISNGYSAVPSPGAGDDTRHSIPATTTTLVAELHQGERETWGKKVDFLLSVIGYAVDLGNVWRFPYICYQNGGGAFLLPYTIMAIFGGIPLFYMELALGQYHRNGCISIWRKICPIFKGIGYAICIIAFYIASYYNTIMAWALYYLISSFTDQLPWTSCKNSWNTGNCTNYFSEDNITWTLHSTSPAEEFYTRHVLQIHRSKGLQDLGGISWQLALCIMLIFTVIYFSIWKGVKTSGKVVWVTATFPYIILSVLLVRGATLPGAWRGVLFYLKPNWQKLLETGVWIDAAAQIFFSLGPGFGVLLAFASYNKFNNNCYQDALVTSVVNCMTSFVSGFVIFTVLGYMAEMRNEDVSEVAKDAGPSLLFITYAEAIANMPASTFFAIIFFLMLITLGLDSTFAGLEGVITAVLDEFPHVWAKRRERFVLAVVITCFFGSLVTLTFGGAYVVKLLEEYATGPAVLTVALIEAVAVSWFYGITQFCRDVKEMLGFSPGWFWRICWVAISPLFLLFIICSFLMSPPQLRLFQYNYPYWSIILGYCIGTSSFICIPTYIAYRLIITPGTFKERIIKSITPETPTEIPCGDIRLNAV
Description: Screening for Human Serotonin Transporter (hSERT) Antagonists Using a Scintillation Proximity Assay (SPA)
Scintillation Proximity Assay (SPA) works by bringing radioligand within close proximity to the bead's scintillant to stimulate light emission. […] Unbound radioligand produced no signal as a result of distant proximity to scintillant (lack of energy transfer).

[2] = biological target: Human Norepinephrine Transporter (hNET) (Homo sapiens, UniProt P23975); test: Human Norepinephrine Transporter (hNET) Scintillation Proximity Assay (SPA), competition with [3H]-Nisoxetine; details: membranes of HEK-293 cells expressing recombinant hNET, Ki by Cheng-Prusoff; for Ki: pKi NET
Human Norepinephrine Transporter (hNET), sequence (P23975 whole entry): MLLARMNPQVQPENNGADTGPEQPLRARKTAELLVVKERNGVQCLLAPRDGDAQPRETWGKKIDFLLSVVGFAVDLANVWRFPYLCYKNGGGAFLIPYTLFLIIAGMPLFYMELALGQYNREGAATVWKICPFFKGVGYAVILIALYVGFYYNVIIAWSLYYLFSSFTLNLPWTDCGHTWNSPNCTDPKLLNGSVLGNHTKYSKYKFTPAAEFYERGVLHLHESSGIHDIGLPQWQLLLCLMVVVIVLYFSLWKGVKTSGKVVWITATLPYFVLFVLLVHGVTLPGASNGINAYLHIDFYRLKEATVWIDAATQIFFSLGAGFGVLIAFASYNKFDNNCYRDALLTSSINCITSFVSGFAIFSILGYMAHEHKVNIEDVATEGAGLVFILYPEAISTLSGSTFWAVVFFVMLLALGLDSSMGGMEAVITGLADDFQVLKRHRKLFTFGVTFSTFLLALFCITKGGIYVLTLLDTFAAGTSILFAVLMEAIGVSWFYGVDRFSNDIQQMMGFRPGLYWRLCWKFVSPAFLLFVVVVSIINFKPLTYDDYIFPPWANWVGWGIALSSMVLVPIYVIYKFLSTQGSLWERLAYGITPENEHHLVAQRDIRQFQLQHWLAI

Molecule | pKi SERT [1] | pKi NET [2] | Ki [1] [µM] | Ki [2] [µM]
[3-(7-Methoxy-1H-indol-5-yl)-3-phenyl-propyl]-methyl-amine [Compound 22] | 7.66 | 8.39 | – | –
[3-(7-Fluoro-1H-indol-5-yl)-3-(3-methoxy-phenyl)-propyl]-methyl-amine [Compound 100] | 7.79 | 7.95 | – | –
[3-(1-Methanesulfonyl-1H-indol-5-yl)-3-phenyl-propyl]-methyl-amine hydrochloride [Compound 14] | 7.55 | 6.57 | – | –
4-Methoxy-5-(3-methylamino-1-phenyl-propyl)-1H-indole-3-carbonitrile [Compound 89] | 9.07 | 6.05 | – | –
CNCCC(c1ccccc1)c1ccc2[nH]cc(C)c2c1 (stereo not shown) [Compound 15, Methyl-[3-(3-methyl-1H-indol-5-yl)-3-phenyl-propyl]-amine] | – | – | 0.00525 | 0.0407
CNCCC(c1ccccc1)c1cc2cc[nH]c2cc1F (stereo not shown) [Compound 102, [3-(6-Fluoro-1H-indol-5-yl)-3-phenyl-propyl]-methyl-amine] | – | – | 0.0776 | 0.0288
CNCCC(c1ccccc1)c1cc(OC)c2[nH]ncc2c1 (stereo not shown) [Compound 75, [3-(7-Methoxy-1H-indazol-5-yl)-3-phenyl-propyl]-methyl-amine] | – | – | 0.00562 | 0.00661
[3-(7-Fluoro-1H-indol-5-yl)-3-(4-methoxy-phenyl)-propyl]-methyl-amine [Compound 98] | 7.88 | 8.3 | – | –
CNCCC(c1ccccc1)c1ccc2[nH]nc(OC(C)C)c2c1 (stereo not shown) [Compound 80, [3-(3-Isopropoxy-1H-indazol-5-yl)-3-phenyl-propyl]-methyl-amine] | – | – | 0.0331 | 0.148
CNCCC(c1ccc2[nH]ccc2c1)c1ccc2nccnc2c1 (stereo not shown) [Compound 123, [3-(1H-Indol-5-yl)-3-quinoxalin-6-yl-propyl]-methyl-amine] | – | – | 0.0479 | 0.112
[3-(7-Fluoro-1H-indol-5-yl)-3-(3-fluoro-phenyl)-propyl]-methyl-amine [Compound 93] | 7.76 | 8.41 | – | –
CNCCC(c1ccc2[nH]ccc2c1)c1ccc2cc[nH]c2c1 (stereo not shown) [Compound 117, [3-(1H-Indol-6-yl)-3-(1H-indol-5-yl)-propyl]-methyl-amine] | – | – | 0.00891 | 0.00589
CNCCC(c1ccccc1)c1ccc2[nH]ccc2c1 (stereo not shown) [Compound 42, [3-(1H-Indol-5-yl)-3-phenyl-propyl]-methyl-amine] | – | 8.0 | 0.0324 | –
CNCCC(c1ccc2[nH]ccc2c1)c1nc2ccccc2s1 (stereo not shown) [Compound 140, [3-Benzothiazol-2-yl-3-(1H-indol-5-yl)-propyl]-methyl-amine] | – | – | 0.0112 | 0.00933
CNCCC(c1cccc(F)c1)c1cc(Cl)c2[nH]ccc2c1 (stereo not shown) [Compound 108] | – | – | 0.0129 | 0.00288
5-(3-Amino-1-phenyl-propyl)-1H-indole-3-carbonitrile [Compound 70] | 8.74 | 6.39 | – | –
[3-(1H-Indol-6-yl)-3-phenyl-propyl]-methyl-amine [Compound 41] | 8.01 | 7.63 | – | –
[3-(4-Methoxy-1H-indol-5-yl)-3-phenyl-propyl]-methyl-amine [Compound 88] | 7.28 | 7.03 | – | –
3-[1-(7-Fluoro-1H-indol-5-yl)-3-methylamino-propyl]-benzonitrile [Compound 110] | 7.59 | 7.95 | – | –
CNCCC(c1ccccc1)c1ccc2ccn(C)c2c1 (stereo not shown) [Compound 9, Methyl-[3-(1-methyl-1H-indol-6-yl)-3-phenyl-propyl]-amine] | – | – | 0.00955 | 0.0741
CNCCC(c1ccccc1)c1ccc2[nH]c(C)cc2c1 (stereo not shown) [Compound 7, Methyl-[3-(2-methyl-1H-indol-5-yl)-3-phenyl-propyl]-amine] | – | – | 0.011 | 0.0912
CNCCC(c1ccccc1)c1ccc2[nH]c(C#N)cc2c1 (stereo not shown) [Compound 128, 5-(3-Methylamino-1-phenyl-propyl)-1H-indole-2-carbonitrile] | – | – | 0.00102 | 0.0575
7-Chloro-5-(3-methylamino-1-phenyl-propyl)-1H-indole-2-carboxylic acid amide [Compound 105] | 7.31 | 8.35 | – | –
CNCCC(c1ccccc1)c1ccc2[nH]cc(S(=O)(=O)N(C)C)c2c1 (stereo not shown) [Compound 90, 5-(3-Methylamino-1-phenyl-propyl)-1H-indole-3-sulfonic acid dimethylamide] | – | – | 0.038 | 0.24
CNCCC(c1ccccc1)c1ccc2[nH]ccc2c1F (stereo not shown) [Compound 97, [3-(4-Fluoro-1H-indol-5-yl)-3-phenyl-propyl]-methyl-amine] | – | – | 0.00933 | 0.017

Molecule | pKi SERT [1] | pKi NET [2] | Ki [1] [µM] | Ki [2] [µM]
CNCC[C@@H](c1ccccc1)c1ccc2[nH]nc(Cl)c2c1 [Compound 60, [(S)-3-(3-Chloro-1H-indazol-5-yl)-3-phenyl-propyl]-methyl-amine] | – | – | 0.00851 | 0.0407
CCOc1n[nH]c2ccc(C(CCNC)c3ccccc3)cc12 (stereo not shown) [Compound 79, [3-(3-Ethoxy-1H-indazol-5-yl)-3-phenyl-propyl]-methyl-amine] | – | – | 0.0269 | 0.132
[3,3-Bis-(1H-indol-5-yl)-propyl]-methyl-amine [Compound 111] | 7.92 | 9.12 | – | –
CNCCC(c1ccccc1)c1ccc2occc2c1 (stereo not shown) [Compound 142, (3-Benzofuran-5-yl-3-phenyl-propyl)-methyl-amine] | – | – | 0.0107 | 0.0105
5-(3-Methylamino-1-phenyl-propyl)-1H-indole-3-carbonitrile [Compound 10] | 9.42 | 7.03 | – | –
CNCC[C@H](c1ccccc1)c1cc(OC)c2[nH]ncc2c1 [Compound 83, [3-(7-Methoxy-1H-indazol-5-yl)-3-(R)-phenyl-propyl]-methyl-amine] | – | – | 0.0115 | 0.0537
CNCCC(c1ccccc1)c1cc(OC)c2[nH]cc(C#N)c2c1 (stereo not shown) [Compound 96, 7-Methoxy-5-(3-methylamino-1-phenyl-propyl)-1H-indole-3-carbonitrile] | – | – | 0.0851 | 0.0977
CNCC[C@H](c1ccccc1)c1cc(F)c2[nH]cc(C#N)c2c1 [Compound 99, 7-Fluoro-5-(3-methylamino-1-(R)-phenyl-propyl)-1H-indole-3-carbonitrile] | – | – | 0.000661 | 0.145
CNCCC(c1ccccc1)c1cc(F)c2[nH]ccc2c1 (stereo not shown) [Compound 13] | 7.4 | 8.2 | – | –
CN(C)CCC(c1ccccc1)c1ccc2[nH]ccc2c1 (stereo not shown) [Compound 113, [3-(1H-Indol-5-yl)-3-phenyl-propyl]-dimethyl-amine] | – | – | 0.178 | 0.0832
CNCCC(c1ccc2[nH]ccc2c1)c1nccs1 (stereo not shown) [Compound 139, [3-(1H-Indol-5-yl)-3-thiazol-2-yl-propyl]-methyl-amine] | – | – | – | 0.0741
NCCC(c1ccccc1)c1cc(Cl)c2[nH]c(C(N)=O)cc2c1 (stereo not shown) [Compound 103, 5-(3-Amino-1-phenyl-propyl)-7-chloro-1H-indole-2-carboxylic acid amide] | – | – | 0.145 | 0.00437
CNCCC(c1ccccc1)c1ccc2c(C#N)c[nH]c2c1 (stereo not shown) [Compound 28, 6-(3-Methylamino-1-phenyl-propyl)-1H-indole-3-carbonitrile] | 9.72 | 6.89 | – | –
CNCCC(c1ccc2[nH]ccc2c1)c1cccc2ccccc12 (stereo not shown) [Compound 115, [3-(1H-Indol-5-yl)-3-naphthalen-1-yl-propyl]-methyl-amine] | – | – | 0.00813 | 0.0437
CNCCC(c1ccccc1)c1cc(F)c2[nH]cc(C#N)c2c1 (stereo not shown) [Compound 19] | – | – | 0.00214 | 0.0562
CNCC[C@@H](c1ccccc1)c1cc(OC)c2[nH]ncc2c1 [Compound 82, [3-(7-Methoxy-1H-indazol-5-yl)-3-(S)-phenyl-propyl]-methyl-amine] | – | – | 0.00372 | 0.00263
5-(3-Methylamino-1-phenyl-propyl)-1H-indole-3-carboxylic acid methylamide [Compound 129] | 7.18 | 7.72 | – | –
CNCC[C@H](c1ccccc1)c1cc(Cl)c2[nH]ncc2c1 [Compound 84, [3-(7-Chloro-1H-indazol-5-yl)-3-(R)-phenyl-propyl]-methyl-amine] | – | – | 0.00589 | 0.00776
[3-(7-Fluoro-1H-indol-5-yl)-3-naphthalen-2-yl-propyl]-methyl-amine [Compound 106] | 8.28 | 7.68 | – | –
CNCCC(c1ccccc1)c1ccc2[nH]c(C(N)=O)cc2c1 (stereo not shown) [Compound 24, 5-(3-Methylamino-1-phenyl-propyl)-1H-indole-2-carboxylic acid amide] | – | – | 0.0708 | 0.00288
CNCCC(c1ccc2c(c1)OCCN2C)c1ccc2[nH]ccc2c1 (stereo not shown) [Compound 114, [3-(1H-Indol-5-yl)-3-(4-methyl-3,4-dihydro-2H-benzo[1,4]oxazin-7-yl)-propyl]-methyl-amine] | – | – | 0.0776 | 0.0871
NCCC(c1ccc2ncccc2c1)c1ccc2[nH]ccc2c1 (stereo not shown) [Compound 120, 3-(1H-Indol-5-yl)-3-quinolin-6-yl-propylamine] | – | – | 0.00324 | 0.141
[3-(7-Fluoro-1H-indol-5-yl)-3-(2-methoxy-phenyl)-propyl]-methyl-amine [Compound 101] | 7.24 | 7.58 | – | –
5-[1-(1H-Indol-5-yl)-3-methylamino-propyl]-1H-indole-3-carbonitrile [Compound 122] | 9.24 | 7.7 | – | –
